Laboratory results reported in patent publication US7417060B2, “Aminoalcohol derivatives” (Astellas Pharma Inc., priority 2003, dated 2008).

Tested on: intravesical pressure (IVP) increase induced by carbachol
Assay: Effect on the increase in intravesical pressure induced by carbachol in anesthetized dog
Format: in vivo
Conditions: anesthetized female Beagle dogs; test compound 0.010 mg/kg intravenously 30 minutes before carbachol (1.8 μg/kg)
Description: Effect on the Increase in Intravesical Pressure Induced by Carbachol in Anesthetized Dog
Female Beagle dogs weighing 8.0-15.0 kg were fasted for 24 hours and maintained under halothane anesthesia. A 12F Foley catheter was lubricated with water soluble jelly, inserted into the urethral orifice and advanced approximately 10 cm until the balloon tip was placed well inside the bladder. The balloon was then inflated with 5 ml of room air and catheter slowly withdrawn just part the first resistance that was felt at the bladder neck. Urine was completely drained out through the catheter, and 30 ml of biological saline was infused. The catheter was connected to pressure transducer, and intravesical pressure (IVP) was continuously recorded. The test compound was administered intravenously at 30 minutes before the administration of carbachol (1.8 μg/kg). Percent inhibition of IVP increase by test compound was calculated by dividing IVPa (IVP increase induced by carbachol after test compound administration) by IVPb (IVP increase induced by carbachol just before test compound administration).

Point of comparison: `CC(C)Cc1cc(-c2ccc(CCN[C@@H](C)[C@H](O)c3ccccc3)cc2)ccc1C(=O)NS(C)(=O)=O.Cl` [Test Compound (2), 4′-[2-[[(1S,2R)-2-Hydroxy-1-methyl-2-phenylethyl]-amino]ethyl]-3-isobutyl-N-(methylsulfonyl)-4-biphenylcarboxamide hydrochloride], “Percent inhibition of IVP increase” value 76%. Against it:
- CC(C)Sc1cc(-c2ccc(CCN[C@@H](C)[C@H](O)c3ccccc3)cc2)ccc1C(=O)O.Cl [Test Compound (1), 4′-[2-[[(1S,2R)-2-Hydroxy-1-methyl-2-phenylethyl]-amino]ethyl]-3-(isopropylthio)-4-biphenylcarboxylic acid hydrochloride] — higher, 77%
- CS(=O)(=O)NC(=O)c1ccc(-c2ccc(CCNC[C@H](O)c3cccnc3)cc2)cc1OC1CCCCC1.Cl.Cl [Test Compound (3), 3-(Cyclohexyloxy)-4′-[2-[[(2R)-2-hydroxy-2-(3-pyridyl)ethyl]amino]ethyl]-N-(methylsulfonyl)-4-biphenylcarboxamide dihydrochloride] — higher, 89%
